Laboratory results from the supplement of paper PMC10307832.

What was measured:
Assay in all cases: relative viability (nuclei count vs DMSO), 5 days (fraction); higher = more cells survive
4EGI-1 + OSI-027 = compound: O=C(O)C(Cc1ccccc1[N+](=O)[O-])=NNc1nc(-c2ccc(Cl)c(Cl)c2)cs1 (mixture of isomers) [4EGI-1] + COc1cccc2cc(-c3nc([C@H]4CC[C@H](C(=O)O)CC4)n4ncnc(N)c34)[nH]c12 [OSI-027] (partner 0.5 µM)
Outline: (§1)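 Nuclei were stained with Hoechst during a one-step fixation (final 0.05% Triton X-100, 1% formaldehyde, 1 ug/ml Hoechst) carried out 5 days after dosing, then counted on 4× images. The cells, lung cancer lines in 1536-well plates, had been dosed by pin tool the day after seeding with one drug alone or a fixed anchor-drug dose plus five library-drug doses (not always all listed) in √10 steps. Relative viability is the nuclei count in treated wells divided by that in vehicle wells, and each value is the median of duplicate plates.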

XMD8-85 + Navitoclax = compound: CN1CCN(CC1)C2=CC(=C(C=C2)NC3=NC=C4C(=N3)N(C5=CC=CC=C5C(=O)N4C)C)OC [XMD8-85] + CC1(C)CCC(c2ccc(Cl)cc2)=C(CN2CCN(c3ccc(C(=O)NS(=O)(=O)c4ccc(N[C@H](CCN5CCOCC5)CSc5ccccc5)c(S(=O)(=O)C(F)(F)F)c4)cc3)CC2)C1 [Navitoclax] (partner 0.5 µM)
Outline: as §1

4EGI-1 + AZD7762 = compound: O=C(O)C(Cc1ccccc1[N+](=O)[O-])=NNc1nc(-c2ccc(Cl)c(Cl)c2)cs1 (mixture of isomers) [4EGI-1] + NC(=O)Nc1cc(-c2cccc(F)c2)sc1C(=O)N[C@H]1CCCNC1 [AZD7762] (partner 0.2 µM)
Outline: as §1

4EGI-1 + Navitoclax = compound: O=C(O)C(Cc1ccccc1[N+](=O)[O-])=NNc1nc(-c2ccc(Cl)c(Cl)c2)cs1 (mixture of isomers) [4EGI-1] + CC1(C)CCC(c2ccc(Cl)cc2)=C(CN2CCN(c3ccc(C(=O)NS(=O)(=O)c4ccc(N[C@H](CCN5CCOCC5)CSc5ccccc5)c(S(=O)(=O)C(F)(F)F)c4)cc3)CC2)C1 [Navitoclax] (partner 0.5 µM)
Outline: as §1

Q: With NCI-H1792 as the cell line, how does the relative viability (4EGI-1 + OSI-027; first compound 0.5 µM) read?
A: 0.886

Q: What about the relative viability (4EGI-1 + OSI-027; first compound 1.581 µM) of the same cell line?
A: 0.75

Q: And the relative viability (4EGI-1 + OSI-027; first compound 5 µM)?
A: 0.62

Q: What about the relative viability (4EGI-1 + OSI-027; first compound 15.81 µM) of the same cell line?
A: 0.579

Q: And the relative viability (4EGI-1 + OSI-027; first compound 50 µM)?
A: 0.503

Q: What about the relative viability (XMD8-85 + Navitoclax; first compound 0.08 µM) of the same cell line?
A: 0.488

Q: And the relative viability (XMD8-85 + Navitoclax; first compound 0.253 µM)?
A: 0.398

Q: What about the relative viability (XMD8-85 + Navitoclax; first compound 2.53 µM) of the same cell line?
A: 0.482

Q: What about the relative viability (XMD8-85 + Navitoclax; first compound 8 µM) of the same cell line?
A: 0.49

Q: And the relative viability (4EGI-1 + AZD7762; first compound 0.5 µM)?
A: 0.67

Q: What about the relative viability (4EGI-1 + AZD7762; first compound 1.581 µM) of the same cell line?
A: 0.822

Q: And the relative viability (4EGI-1 + AZD7762; first compound 5 µM)?
A: 0.861

Q: And the relative viability (4EGI-1 + AZD7762; first compound 15.81 µM)?
A: 0.657

Q: And the relative viability (4EGI-1 + AZD7762; first compound 50 µM)?
A: 0.0923

Q: And the relative viability (4EGI-1 + Navitoclax; first compound 0.5 µM)?
A: 0.618

Q: And the relative viability (4EGI-1 + Navitoclax; first compound 1.581 µM)?
A: 0.498

Q: And the relative viability (4EGI-1 + Navitoclax; first compound 5 µM)?
A: 0.607

Q: What about the relative viability (4EGI-1 + Navitoclax; first compound 15.81 µM) of the same cell line?
A: 0.552

Q: And the relative viability (4EGI-1 + Navitoclax; first compound 50 µM)?
A: 0.542
